From ChEMBL document CHEMBL5316298, “Discovery of Amphiphilic Xanthohumol Derivatives as Membrane-Targeting Antimicrobials against Methicillin-Resistant Staphylococcus aureus” (J Med Chem, 2023)
Active and inactive are the calls of the source. The calls are words filed in the database; no cut-off is given here.

Key:
[1] = Toxicity in KM mouse assessed as effect on RBC count at 20 mg/kg, sc administered into middle dorsum and measured after 24 hrs by routine blood test; type: organism-based, Erythrocyte; settings: in vivo
Staphylococcus aureus [2] = test: Bactericidal activity against methicillin-resistant Staphylococcus aureus 3 at 8 times MIC measured at 2 hrs by plate colony counting method; type: functional, organism-based
Cell membrane [3] = test: Induction of membrane depolarization in methicillin-resistant Staphylococcus aureus 3 assessed as increase in fluorescence intensity measured every 2 mins for 20 mins by SYTOX-green dye based fluorescence assay; type: subcellular; settings: dose 8-32 µg/ml
[4] = Toxicity in KM mouse assessed as abnormalities in skin at 5 to 20 mg/kg, sc administered into middle dorsum and measured after 24 hrs; type: organism-based; settings: in vivo, dose 5-20 mg/kg
[5] = Toxicity in KM mouse assessed as effect on hemoglobin level at 20 mg/kg, sc administered into middle dorsum and measured after 24 hrs by routine blood test; type: organism-based; settings: in vivo
Cell membrane [6] = test: Induction of membrane depolarization in methicillin-resistant Staphylococcus aureus 3 assessed as fold increase in fluorescence intensity at 8 to 16 ug/ml measured after 20 mins by DiSC35 dye-based fluorescence assay relative to control; type: subcellular; settings: dose 8-16 µg/ml
Staphylococcus aureus [7] = test: Induction of drug resistance in Staphylococcus aureus ATCC 29213 assessed as increase in MIC at 0.5 times MIC measured for 20 passages; type: functional
[8] = Toxicity in KM mouse assessed as effect on mean corpuscular volume at 20 mg/kg, sc administered into middle dorsum and measured after 24 hrs by routine blood test; type: organism-based; settings: in vivo
Staphylococcus aureus [9] = test: Anti-MRSA activity against methicillin-resistant Staphylococcus aureus 3 incubated for 16 to 18 hrs in presence of 64 ug/ml cardiolipin by checkerboard broth dilution method (reference value: 1 ug/ml); type: functional; settings: time 16-18 hrs
Cell membrane [10] = test: Induction of membrane depolarization in methicillin-resistant Staphylococcus aureus 3 assessed as increase in fluorescence intensity at 8 to 16 ug/ml measured every 2 mins for 20 mins by DiSC35 dye-based fluorescence assay; type: subcellular; settings: dose 8-16 µg/ml
Staphylococcus aureus [11] = test: Anti-MRSA activity against methicillin-resistant Staphylococcus aureus 3 incubated for 16 to 18 hrs in presence of 0 to 64 ug/ml peptidoglycan by checkerboard broth dilution method; type: functional, organism-based; settings: time 16-18 hrs
[12] = Toxicity in KM mouse assessed as effect on urea level at 20 mg/kg, sc administered into middle dorsum and measured after 24 hrs by routine blood test; type: organism-based; settings: in vivo
Staphylococcus aureus [13] = test: Antibacterial activity against methicillin-resistant Staphylococcus aureus 3 infected in KM mouse assessed as appearance of smoother dorsal skin at 10 mg/kg administered into skin infection site measured after 24 hrs; type: functional, organism-based
Staphylococcus aureus [14] = test: Bactericidal activity against Staphylococcus aureus ATCC 29213 at 8 times MIC measured at 1 hr by time kill assay; type: functional, organism-based
[15] = Hemolytic activity in sheep erythrocytes incubated for 1 hr by absorbance based analysis; type: toxicity, cell-based, Ovis aries, Erythrocyte
[16] = Toxicity in KM mouse infected with methicillin-resistant Staphylococcus aureus 3 assessed as swelling of renal tubular epithelial cells with granular degeneration at 5 to 10 mg/kg administered into skin infection site measured after 24 hrs by H and E staining based analysis; type: organism-based; settings: in vivo, topical_or_ocular, dose 5-10 mg/kg
[17] = Toxicity in KM mouse assessed as swelling in skin at 40 to 80 mg/kg, sc administered into middle dorsum and measured after 24 hrs; type: organism-based; settings: in vivo, dose 40-80 mg/kg
[18] = Toxicity in KM mouse assessed as redness in skin at 40 to 80 mg/kg, sc administered into middle dorsum and measured after 24 hrs; type: organism-based; settings: in vivo, dose 40-80 mg/kg
Staphylococcus aureus [19] = test: Bactericidal activity against methicillin-resistant Staphylococcus aureus 3 at 4 times MIC by plate colony counting method; type: functional, organism-based; settings: time 0-8 hrs, TDE = time-dependent effect
Staphylococcus aureus [20] = test: Antibacterial activity against methicillin-resistant Staphylococcus aureus clinical isolate 6 incubated for 16 to 18 hrs by CLSI-based microbroth dilution method; type: functional; settings: time 16-18 hrs
Staphylococcus aureus [21] = test: Anti-MRSA activity against methicillin-resistant Staphylococcus aureus 3 incubated for 16 to 18 hrs in presence of 0 to 64 ug/ml phosphatidylethanolamine by checkerboard broth dilution method; type: functional, organism-based; settings: time 16-18 hrs
Cell membrane [22] = test: Disruption of membrane integrity in methicillin-resistant Staphylococcus aureus 3 assessed as increase in red fluorescence of PI incubated for 2 hrs by SYTO 9/PI staining based flow cytometry analysis; type: subcellular; settings: dose 4-64 µg/ml
Cell membrane [23] = test: Disruption of membrane integrity in methicillin-resistant Staphylococcus aureus 3 assessed as appearance of ruptured cell surface at 16 ug/ml incubated for 240 mins by SEM analysis; type: subcellular; settings: dose 16.0 µg/ml
[24] = Toxicity in KM mouse assessed as effect on creatinine level at 20 mg/kg, sc administered into middle dorsum and measured after 24 hrs by routine blood test; type: organism-based; settings: in vivo
Staphylococcus aureus [25] = test: Induction of ROS production in methicillin-resistant Staphylococcus aureus 3 assessed as fold increase in intracellular ROS level at 64 ug/ml incubated for 40 mins by DCFH-DA dye based fluorescence analysis relative to control; type: functional
Staphylococcus aureus [26] = test: Antibacterial activity against methicillin-resistant Staphylococcus aureus 3 infected in KM mouse assessed as reduction in bacterial load at infection site at 10 mg/kg administered into skin infection site measured after 24 hrs relative to control; type: functional; set-up: scale not given: the % may be the effect or the level left
Staphylococcus aureus [27] = test: Antibacterial activity against methicillin-resistant Staphylococcus aureus clinical isolate 3 incubated for 16 to 18 hrs by CLSI-based microbroth dilution method; type: functional; settings: time 16-18 hrs
Staphylococcus aureus [28] = test: Antibacterial activity against methicillin-resistant Staphylococcus aureus clinical isolate 9 incubated for 16 to 18 hrs by CLSI-based microbroth dilution method; type: functional; settings: time 16-18 hrs
[29] = Toxicity in KM mouse infected with methicillin-resistant Staphylococcus aureus 3 assessed as histopathological abnormalities in spleen at 5 to 10 mg/kg administered into skin infection site measured after 24 hrs by H and E staining based analysis; type: organism-based; settings: in vivo, topical_or_ocular, dose 5-10 mg/kg
Staphylococcus aureus [30] = test: Antibacterial activity against methicillin-resistant Staphylococcus aureus clinical isolate 5 incubated for 16 to 18 hrs by CLSI-based microbroth dilution method; type: functional; settings: time 16-18 hrs
[31] = Toxicity in KM mouse assessed as pathological changes in lungs at 20 mg/kg, sc administered into middle dorsum and measured after 24 hrs by H and E staining based analysis; type: organism-based; settings: in vivo
Staphylococcus aureus [32] = test: Antibacterial activity against methicillin-resistant Staphylococcus aureus 3 infected in KM mouse assessed as reduction in bacterial load at infection site by measuring colony forming units at 10 mg/kg administered into skin infection site measured after 24 hrs; type: functional
[33] = Toxicity in KM mouse infected with methicillin-resistant Staphylococcus aureus 3 assessed as spleen damage at 5 to 10 mg/kg administered into skin infection site measured after 24 hrs by H and E staining based analysis; type: organism-based; settings: in vivo, topical_or_ocular, dose 5-10 mg/kg
Staphylococcus aureus [34] = test: Antibacterial activity against methicillin-resistant Staphylococcus aureus 3 infected in KM mouse assessed as reduction in abscesses on dorsal surface of skin at 5 mg/kg administered into skin infection site measured after 24 hrs; type: functional, organism-based
Staphylococcus aureus [35] = test: Antibacterial activity against methicillin-resistant Staphylococcus aureus 3 infected in KM mouse assessed as reduction in abscesses inside the skin at 5 mg/kg administered into skin infection site measured after 24 hrs; type: functional, organism-based
[36] = Toxicity in KM mouse assessed as effect on WBC count at 20 mg/kg, sc administered into middle dorsum and measured after 24 hrs by routine blood test; type: organism-based; settings: in vivo

For `CCCN(CCC)C(=O)C[N+](C)(C)CCCCOc1ccc(/C=C/C(=O)c2c(OC)cc3c(c2O)C=CC(C)(C)O3)cc1.[Br-]`, which Activity [1] is on record?
Its Activity is “Non-Toxic”.

What about the Activity (Staphylococcus aureus [2]) of the same compound?
Its Activity is “Active”.

What about the Activity (Cell membrane [3]) of the same compound?
Its Activity is “Dose-Dependent Effect”.

What about the Activity [4] of the same compound?
Its Activity is “Non-Toxic”.

What about the Activity [5] of the same compound?
Its Activity is “Non-Toxic”.

What about the fold change (FC) (Cell membrane [6]) of the same compound?
The fold change (FC) was 6.

And the Activity (Staphylococcus aureus [7])?
The Activity was “inactive”.

And the Activity [8]?
Its Activity is “Non-Toxic”.

And the MIC (Staphylococcus aureus [9])?
The MIC was 32 µg/mL.

What about the Activity (Cell membrane [10]) of the same compound?
Its Activity is “Active”.

What about the Activity (Staphylococcus aureus [11]) of the same compound?
The Activity was “Active”.

And the Activity [12]?
Its Activity is “Non-Toxic”.

What about the Activity (Staphylococcus aureus [13]) of the same compound?
Its Activity is “Active”.

And the Activity (Staphylococcus aureus [14])?
The Activity was “Active”.

And the HC50 at 1 h [15]?
Its HC50 at 1 h is 338 µg/mL.

And the Activity [16]?
Its Activity is “Non-Toxic”.

And the Activity [17]?
Its Activity is “Toxic”.

What about the Activity [18] of the same compound?
Its Activity is “Toxic”.

What about the Activity (Staphylococcus aureus [19]) of the same compound?
The Activity was “Tde”.

What about the MIC (Staphylococcus aureus [20]) of the same compound?
The MIC was 1 µg/mL.

What about the Activity (Staphylococcus aureus [21]) of the same compound?
The Activity was “Active”.

And the Activity (Cell membrane [22])?
The Activity was “Dose-Dependent Effect”.

And the Activity (Cell membrane [23])?
Its Activity is “Active”.

What about the Activity [24] of the same compound?
The Activity was “Non-Toxic”.

What about the “fold change (FC)” value (Staphylococcus aureus [25]; dose 64 µg/ml) of the same compound?
The value was 7.

And the Activity (Staphylococcus aureus [25]; dose 64.0 µg/ml)?
The Activity was “Active”.

What about the Activity (Staphylococcus aureus [26]) of the same compound?
Its Activity is 99.998%.

And the MIC (Staphylococcus aureus [27])?
Its MIC is 1 µg/mL.

And the MIC (Staphylococcus aureus [28])?
Its MIC is 2 µg/mL.

What about the Activity [29] of the same compound?
Its Activity is “Non-Toxic”.

And the MIC (Staphylococcus aureus [30])?
The MIC was 1 µg/mL.

What about the Activity [31] of the same compound?
The Activity was “Non-Toxic”.

And the Activity (Staphylococcus aureus [32])?
Its Activity is 4.5 log10CFU/g.

And the Activity [33]?
The Activity was “Non-Toxic”.

And the Activity (Staphylococcus aureus [34])?
The Activity was “inactive”.

And the Activity (Staphylococcus aureus [35])?
The Activity was “inactive”.

And the Activity [36]?
Its Activity is “Non-Toxic”.
